Test results: patent US11975051B1, “Therapeutic peptides and uses thereof” (priority 2022, dated 2024)
Read-outs that look alike come from different tables or passages of the source. Where no end group is shown, it is not given here. [ ]: non-standard residue; d: D form.

Legend:
TNFα = TNFα lowering in ConA stimulated peripheral blood mononuclear cells; type: cell-based, human; conditions: 5 μg/mL ConA 72 hours, N=3
From the text: (§1) The influence of proinflammatory cytokines on the immunoregulatory function of immune cells from healthy donors may be assessed using mitogen-stimulated PBMC responses, which can be measured by determining the effect of test compounds on cytokine levels after stimulation by Concanavilin A (“ConA”). See Arneth, CURRENT PROTOCOLS IN CYTOMETRY 6.28 supplement 51 (2010); A. Erhardt et al., Immunology and Liver Disease Karger (2010); W. Ge et al., INTERNATIONAL IMMUNOPHARMACOLOGY 85 (2020); S. Malchow et al., BICHIMICA ET BIOPHYSICA ACTA 1812:290-301 (2011); A. Thomazelli et al., IMMUNOPHARMACOLOGY AND IMMUNOTOXICOLOGY, 40:5:387-392 (2018); N. Umeda et al., LEUKOCYTE BIOLOGY 791-801 (2019); H. Wang et al., WORLD JOURNAL OF GASTROENTEROLOGY 119-125 (2012).
(§2) Normal human PBMCs were stimulated with 5 μg/mL ConA for 72 hours followed by treatment with test compound, each of which are set forth in Table 6, at either 4.15 μM or 41.5 μM. Data represents mean of either TNFα or interleukin IL-6 lowering after ConA stimulation±SD. 2-way ANOVA with Dunnet's multiple comparison test; * p<0.05 (represented as +); ** p<0.01 (represented as ++); *** p<0.001 **** (represented as +++); p<0.0001 (represented as ++++); N=3 replicates. Both TNFα and IL-6 are inflammatory cytokines for which the lowering would be expected to provide therapeutic benefit for a variety of diseases. For example, TNFα is implicated in the inflammation associated with neurodegenerative and inflammatory disorders (see, e.g., G. D. Kalliolias et al., TNF biology, pathogenic mechanisms and emerging therapeutic strategies, 12(1) NATURE REVIEWS RHEUMATOLOGY 49-62 (2016)) as is […] (see, e.g., S. Kaur et al., A panoramic review of IL-6: Structure, pathophysiological roles and inhibitors, 28(5) BIOORG. MED. CHEM. 115327 (2020)).

IL-6 = IL-6 lowering in ConA stimulated peripheral blood mononuclear cells; type: cell-based, human; conditions: 5 μg/mL ConA 72 hours, N=3
From the text: as §1, §2

ALS patient-derived ASCs = experiment: Stressed ALS patient-derived ASCs treated with peptides, SeaHorse analytics (Example 6); type: cell-based, human; conditions: tested at 0.5 and/or 5 mM (TP-5 0.01-100 mM), DMSO/H2O
From the text: ALS patient-derived ASCs showing hypermetabolism and lipid sequestration were stressed and treated with peptides (shown below, column 2) and effect of the peptide measured with SeaHorse analytics.

ALS patients = conditions: cited from earlier work
patients with ALS = conditions: cited from earlier work
[1] = Mouse (liver) microsomal stability; type: in vitro ADME; conditions: mouse, liver microsomes
[2] = also when given with other drugs; cited from earlier work
[3] = in vivo; cited from earlier work
[4] = Pharmacokinetics in mice dosed IV, SC and PO; type: in vivo, mouse; conditions: mouse, in vivo, mice
Mouse plasma stability = type: in vitro ADME; conditions: read-out: Mouse Plasma Stability t½
renal dialysis patients = conditions: cited from earlier work
TDP43 model = experiment: Thymalfasin in the TDP43 (Prp-TDP43^A315T) ALS mouse model; type: in vivo
From the text: (§3) In mice, thymalfasin is metabolized to the active molecule thymopentin. Because mice process the pro-molecule thymalfasin into thymopentin as do humans, thymalfasin may illuminate the effects of thymopentin by increasing target engagement afforded by the pro-molecule.

SOD1^G93A model = experiment: Thymalfasin in the SOD1^G93A ALS mouse model; type: in vivo
From the text: as §3

Compound | TNFα lowering after ConA stimulation (significance) (TNFα; 4.15 μM test compound) | TNFα lowering after ConA stimulation (significance) (TNFα; 41.5 μM test compound) | IL-6 lowering after ConA stimulation (significance) (IL-6; 4.15 μM test compound) | IL-6 lowering after ConA stimulation (significance) (IL-6; 41.5 μM test compound) | Conc. with positive effect (ALS patient-derived ASCs) | other results
1 (RKDVY) [Compound 1] | +++ (*** p<0.001 **** (represented as +++)) | ++++ (p<0.0001 (represented as ++++)) | + (* p<0.05 (represented as +)) | +++ (*** p<0.001 **** (represented as +++)) | none | 
6 (Ac-[dY][dV][dD][dK][dR]-NHMe) [Compound 6] | ++++ (p<0.0001 (represented as ++++)) | ++++ (p<0.0001 (represented as ++++)) | + (* p<0.05 (represented as +)) | ++++ (p<0.0001 (represented as ++++)) | 5 mM | 
8 (Ac-[dY][dV][dD][dK][dR]-NH2) [Compound 8] |  |  |  |  | 5 mM | 
CC1=NN(c2ccccc2)C(=O)C1 [Edavarone] |  |  |  |  |  | slowing of the progression of disease (ALS patients): 33%
Nc1nc2ccc(OC(F)(F)F)cc2s1 [Riluzole] |  |  |  |  |  | extension of life (patients with ALS): several months
Ac-Arg-Lys-Asp-Val-Tyr-NH2 (Ac-RKDVY-NH2) [Compound 3] | + (* p<0.05 (represented as +)) | ++ (** p<0.01 (represented as ++)) |  | +++ (*** p<0.001 **** (represented as +++)) | none | 
Ac-Arg-Lys-Asp-Val-Tyr-NHMe (Ac-RKDVY-NHMe; SMILES CNC(=O)[C@H](Cc1ccc(O)cc1)NC(=O)[C@@H](NC(=O)[C@H](CC(=O)O)NC(=O)[C@H](CCCCN)NC(=O)[C@H](CCCNC(=N)N)NC(C)=O)C(C)C) [Compound 5] |  | + (* p<0.05 (represented as +)) | + (* p<0.05 (represented as +)) | ++ (** p<0.01 (represented as ++)) | none | 
Arg-Lys-Asp-Val-Tyr-NH2 (RKDVY-NH2) [Compound 2] | ++ (** p<0.01 (represented as ++)) | ++ (** p<0.01 (represented as ++)) | ++ (** p<0.01 (represented as ++)) | +++ (*** p<0.001 **** (represented as +++)) | none | 
Arg-Lys-Asp-Val-Tyr-NHMe (RKDVY-NHMe) [Compound 4] | ++ (** p<0.01 (represented as ++)) | +++ (*** p<0.001 **** (represented as +++)) | + (* p<0.05 (represented as +)) | ++ (** p<0.01 (represented as ++)) | none | 
D-Tyr-D-Val-D-Asp-D-Lys-D-Arg-NH2 ([dY][dV][dD][dK][dR]-NH2) [Compound 7] |  |  |  |  | 0.5 mM | 
RKDVY [TP-5, Arg-Lys-Asp-Val-Tyr, reference compound] |  |  |  |  |  | half-life ([1]; mouse liver microsomes, read-out: stability in mouse liver microsomes, half-life): 23.1 min; half-life ([1]; mouse microsomes, read-out: Mouse Microsomal Stability t½): > 60 min; safety / tolerability [2]: well tolerated; half-life of exogenous thymopentin [3]: seconds; half-life ([4]; IV, read-out: IV t½, mice): 5.58 min; bioavailability ([4]; PO, read-out: PO % F, mice): 36%; AUC(0-inf) ([4]; PO, read-out: PO AUCinf): 1270 ng·h/mL; Cmax ([4]; PO, read-out: PO Cmax): 1370 ng/mL; half-life ([4]; PO, read-out: PO t½, mice): 7.72 min; bioavailability ([4]; SC, read-out: SC % F, mice): 39%; AUC(0-inf) ([4]; SC, read-out: SC AUCinf): 126 ng·h/mL; Cmax ([4]; SC, read-out: SC Cmax): 133 ng/mL; half-life ([4]; SC, read-out: SC t½, mice): 8.92 min; half-life (Mouse plasma stability): 23.1 min; IL-6, IL-8, TNF and CRP (renal dialysis patients): reduced; superoxide dismutase (SOD), state of oxidative stress (renal dialysis patients): increasing
thymalfasin: thymosin α (Tα1), 28 amino acids, commercially available as ZADAXIN; pro-molecule metabolized to thymopentin (Ac-SDAAVDTSSEITTKDLKEKKEVVEEAEN; UniProt P06454 2-29, looked up) |  |  |  |  |  | growth and strength (based on wire hang tests) (TDP43 model; TDP-43 mouse model): improvement; disease phenotype (TDP43 model; TDP-43 mouse model, one cohort): prevented in one cohort; Iba1 and brain GFAP, measures of inflammation (TDP43 model; treated mice): Statistically-significant reduction; ubiquitin in brain tissue and spinal cord on histopathology (SOD1^G93A model): statistically-significant reduction
